Patent US4281121A, “1,3,4-Thiadiazole-2-carboxylic acid derivatives, process for making the same and fungicidal and nematocidal compositions containing same” (Schering Aktiengesellschaft, priority 1978, dated 1981)

test system: Fusarium avenaceum; experiment: Threshold concentration test in case of Fusarium avenaceum (infested soil, garden peas); assay type: in vivo; conditions: 25 mg/l soil; 20 grains per dish; 18 days at 20-24° C.
Description: Threshold concentration test in case of Fusarium avenaceum
A 20% pulverulent active agent of the type further identified in the table below was mixed in uniform manner with a soil which had been heavily infested with Fusarium avenaceum. The thus treated soil was then placed into clay dishes of a capacity of 0.5 l of earth. Each dish was seeded without any intervening time with 20 grains of garden peas (Pisum sativum L. convar. medullare Alef.) of the type "Wunder von Kelvedon". After a cultivation time of 18 days at 20° to 24° C. in a hot house the number of sound peas was determined and a root evaluation was carried out. The active agents employed, the amounts and results appear from the following table.
(§1) The root evaluation was carried out on a scale from 1 to 4 as follows: […]

Compound | number of sound peas
CC[S+]([O-])c1nnc(C#N)s1 (stereo not shown) [5-ethylsulfinyl-1,3,4-thiadiazole-2-carbonitrile] | 19
CCC[S+]([O-])c1nnc(C#N)s1 (stereo not shown) [5-propylsulfinyl-1,3,4-thiadiazole-2-carbonitrile] | 19

same assay, conditions: 25 mg/l soil; 18 days

Compound | root evaluation (1-4)
CC[S+]([O-])c1nnc(C#N)s1 (stereo not shown) [5-ethylsulfinyl-1,3,4-thiadiazole-2-carbonitrile] | 4
CCC[S+]([O-])c1nnc(C#N)s1 (stereo not shown) [5-propylsulfinyl-1,3,4-thiadiazole-2-carbonitrile] | 4

same assay, conditions: 50 mg/l soil; 20 grains per dish; 18 days at 20-24° C.

Compound | number of sound peas
CC[S+]([O-])c1nnc(C#N)s1 (stereo not shown) [5-ethylsulfinyl-1,3,4-thiadiazole-2-carbonitrile] | 20
CCC[S+]([O-])c1nnc(C#N)s1 (stereo not shown) [5-propylsulfinyl-1,3,4-thiadiazole-2-carbonitrile] | 20

same assay, conditions: 50 mg/l soil; 18 days

Compound | root evaluation (1-4)
CC[S+]([O-])c1nnc(C#N)s1 (stereo not shown) [5-ethylsulfinyl-1,3,4-thiadiazole-2-carbonitrile] | 4
CCC[S+]([O-])c1nnc(C#N)s1 (stereo not shown) [5-propylsulfinyl-1,3,4-thiadiazole-2-carbonitrile] | 4

same assay, conditions: 100 mg/l soil; 20 grains per dish; 18 days at 20-24° C.

Compound | number of sound peas
CC[S+]([O-])c1nnc(C#N)s1 (stereo not shown) [5-ethylsulfinyl-1,3,4-thiadiazole-2-carbonitrile] | 20
CCC[S+]([O-])c1nnc(C#N)s1 (stereo not shown) [5-propylsulfinyl-1,3,4-thiadiazole-2-carbonitrile] | 19

same assay, conditions: 100 mg/l soil; 18 days

Compound | root evaluation (1-4)
CC[S+]([O-])c1nnc(C#N)s1 (stereo not shown) [5-ethylsulfinyl-1,3,4-thiadiazole-2-carbonitrile] | 4
CCC[S+]([O-])c1nnc(C#N)s1 (stereo not shown) [5-propylsulfinyl-1,3,4-thiadiazole-2-carbonitrile] | 4

test system: Helminthosporium gram; experiment: not given; conditions: 10 g active agent per 100 kg; about 5 weeks

Compound | % activity
CC[S+]([O-])c1nnc(C#N)s1 (stereo not shown) [5-ethylsulfinyl-1,3,4-thiadiazole-2-carbonitrile] | 98%
CCS(=O)(=O)c1nnc(C(=O)N2CCOCC2)s1 [5-ethylsulfonyl-1,3,4-thiadiazole-2-carboxylic acid-(N,N-3-oxapentamethyleneamide] | 99%
COCCNC(=O)c1nnc([S+](C)[O-])s1 (stereo not shown) [5-methylsulfinyl-1,3,4-thiadiazole-2-carboxylic acid-(2-methoxyethyl)-amide] | 75%

same assay, conditions: 20 g active agent per 100 kg; about 5 weeks

Compound | % activity
CC[S+]([O-])c1nnc(C#N)s1 (stereo not shown) [5-ethylsulfinyl-1,3,4-thiadiazole-2-carbonitrile] | 100%
CCS(=O)(=O)c1nnc(C(=O)N2CCOCC2)s1 [5-ethylsulfonyl-1,3,4-thiadiazole-2-carboxylic acid-(N,N-3-oxapentamethyleneamide] | 100%
COCCNC(=O)c1nnc([S+](C)[O-])s1 (stereo not shown) [5-methylsulfinyl-1,3,4-thiadiazole-2-carboxylic acid-(2-methoxyethyl)-amide] | 97%
CCC[S+]([O-])c1nnc(C#N)s1 (stereo not shown) [5-propylsulfinyl-1,3,4-thiadiazole-2-carbonitrile] | 87%

same assay, conditions: 50 g active agent per 100 kg; about 5 weeks

Compound | % activity
CC[S+]([O-])c1nnc(C#N)s1 (stereo not shown) [5-ethylsulfinyl-1,3,4-thiadiazole-2-carbonitrile] | 100%
CCS(=O)(=O)c1nnc(C(=O)N2CCOCC2)s1 [5-ethylsulfonyl-1,3,4-thiadiazole-2-carboxylic acid-(N,N-3-oxapentamethyleneamide] | 100%
COCCNC(=O)c1nnc([S+](C)[O-])s1 (stereo not shown) [5-methylsulfinyl-1,3,4-thiadiazole-2-carboxylic acid-(2-methoxyethyl)-amide] | 100%
CCC[S+]([O-])c1nnc(C#N)s1 (stereo not shown) [5-propylsulfinyl-1,3,4-thiadiazole-2-carbonitrile] | 99%

test system: Helminthosporium gramineum; experiment: Seed treatment in open field tests for infestation by Helminthosporium gramineum (barley); assay type: in vivo; conditions: summer barley; 50 g active agent/100 kg barley; about 3 months
Description: Seed treatment in open field tests for infestation by Helminthosporium gramineum
The active agents were used in the form of pulverulent compositions. After about 8 months in case of winter barley and after about 3 months in case of summer barley the infested plants were counted and the activity was calculated by the formula [formula]

Compound | % activity
CC[S+]([O-])c1nnc(C#N)s1 (stereo not shown) [5-ethylsulfinyl-1,3,4-thiadiazole-2-carbonitrile] | 100%
CCS(=O)(=O)c1nnc(C(=O)N2CCOCC2)s1 [5-ethylsulfonyl-1,3,4-thiadiazole-2-carboxylic acid-(N,N-3-oxapentamethyleneamide] | 99.3%
CCC[S+]([O-])c1nnc(C#N)s1 (stereo not shown) [5-propylsulfinyl-1,3,4-thiadiazole-2-carbonitrile] | 99.3%

test system: Tilletia caries; experiment: Treatment of oat seeds infested with Tilletia caries (spore germination); assay type: in vivo; conditions: 10 g active agent per 100 kg

Compound | % activity
CC[S+]([O-])c1nnc(C#N)s1 (stereo not shown) [5-ethylsulfinyl-1,3,4-thiadiazole-2-carbonitrile] | 99.8%
CCC[S+]([O-])c1nnc(C#N)s1 (stereo not shown) [5-propylsulfinyl-1,3,4-thiadiazole-2-carbonitrile] | 99%

same assay, conditions: 20 g active agent per 100 kg

Compound | % activity
CC[S+]([O-])c1nnc(C#N)s1 (stereo not shown) [5-ethylsulfinyl-1,3,4-thiadiazole-2-carbonitrile] | 100%
CCC[S+]([O-])c1nnc(C#N)s1 (stereo not shown) [5-propylsulfinyl-1,3,4-thiadiazole-2-carbonitrile] | 100%

same assay, conditions: 50 g active agent per 100 kg

Compound | % activity
CC[S+]([O-])c1nnc(C#N)s1 (stereo not shown) [5-ethylsulfinyl-1,3,4-thiadiazole-2-carbonitrile] | 100%
CCS(=O)(=O)c1nnc(C(=O)N2CCOCC2)s1 [5-ethylsulfonyl-1,3,4-thiadiazole-2-carboxylic acid-(N,N-3-oxapentamethyleneamide] | 100%
CCC[S+]([O-])c1nnc(C#N)s1 (stereo not shown) [5-propylsulfinyl-1,3,4-thiadiazole-2-carbonitrile] | 100%

test system: Plasmopara viticola; experiment: Prophylactic leaf treatment of grapevines in the hothouse against Plasmopara viticola; assay type: in vivo; conditions: concentration of active agent 0.001 (unit not given)
Description: Effects of prophylactic leaf treatment of grapevines in the hothouse against Plasmopara viticola
Young grapevine plants having from 5 to 8 leaves were sprayed dripping wet with the concentrations of active agents stated in the table below. After drying of the spray deposit the leaves were sprayed with an aqueous suspension of sporangia of the fungus (about 20,000 per ml); the spraying was applied to the bottom side of the leaves. The plants were then immediately incubated in a hothouse at a temperature of 22° to 24° C. and at maximum water saturation in the atmosphere. Beginning with the second day the humidity of the air was reduced for 3 to 4 days to normal level (30 to 70% saturation) and was then maintained for another day on the level of full saturation. Subsequently, the percentage portion of the fungus infested surface of each leaf was noted and the average per treatment was calculated in order to determine the fungicidal activity. This was done on the basis of the following formula: [formula]
The active compounds were applied in the form of a 20% concentration spray powder.

Compound | % activity
CC[S+]([O-])c1nnc(C#N)s1 (stereo not shown) [5-ethylsulfinyl-1,3,4-thiadiazole-2-carbonitrile] | 89%
CCC[S+]([O-])c1nnc(C#N)s1 (stereo not shown) [5-propylsulfinyl-1,3,4-thiadiazole-2-carbonitrile] | 100%

same assay, conditions: concentration of active agent 0.005 (unit not given)

Compound | % activity
CC[S+]([O-])c1nnc(C#N)s1 (stereo not shown) [5-ethylsulfinyl-1,3,4-thiadiazole-2-carbonitrile] | 96%
CCC[S+]([O-])c1nnc(C#N)s1 (stereo not shown) [5-propylsulfinyl-1,3,4-thiadiazole-2-carbonitrile] | 100%

same assay, conditions: concentration of active agent 0.025 (unit not given)

Compound | % activity
CC[S+]([O-])c1nnc(C#N)s1 (stereo not shown) [5-ethylsulfinyl-1,3,4-thiadiazole-2-carbonitrile] | 100%
COCCNC(=O)c1nnc([S+](C)[O-])s1 (stereo not shown) [5-methylsulfinyl-1,3,4-thiadiazole-2-carboxylic acid-(2-methoxyethyl)-amide] | 96%
CCC[S+]([O-])c1nnc(C#N)s1 (stereo not shown) [5-propylsulfinyl-1,3,4-thiadiazole-2-carbonitrile] | 100%

test system: Pythium ultimum; experiment: Threshold concentration test for use of the compounds against Pythium ultimum (infested soil, garden peas); assay type: in vivo; design: key to root evaluation (1-4): 4: white roots without fungous necrosis; 3: white roots, minor fungous necrosis; 2: brown roots, already more pronounced fungous necrosis; 1: heavy fungous necrosis, roots rotted; conditions: 20 mg/l soil; 3 weeks
Description: Threshold concentration test for use of the compounds against Pythium ultimum
A 20% concentration of certain pulverulent active agents as listed below were mixed in uniform manner into a soil which had been heavily infested by Pythium ultimum. The thus treated soil was then placed into clay dishes of a capacity of 0.5 l earth. Without any intermediate time lapse 20 grain of garden peas (Pisum sativum L. convar. medullare Alef.) of the type "Wunder von Kelvedon" were then seeded into each of the clay dishes. After a cultivation period of three weeks at 20° to 24° C. in a hothouse the number of sound peas was determined and a root evaluation was carried out. The active agents amounts and results appear from the following table.
as §1

Compound | root evaluation (1-4)
CC[S+]([O-])c1nnc(C#N)s1 (stereo not shown) [5-ethylsulfinyl-1,3,4-thiadiazole-2-carbonitrile] | 4
CCC[S+]([O-])c1nnc(C#N)s1 (stereo not shown) [5-propylsulfinyl-1,3,4-thiadiazole-2-carbonitrile] | 1

same assay, conditions: 20 mg/l soil; 20 grains per dish; 3 weeks at 20-24° C.

Compound | number of sound peas
CC[S+]([O-])c1nnc(C#N)s1 (stereo not shown) [5-ethylsulfinyl-1,3,4-thiadiazole-2-carbonitrile] | 20
CCC[S+]([O-])c1nnc(C#N)s1 (stereo not shown) [5-propylsulfinyl-1,3,4-thiadiazole-2-carbonitrile] | 9

same assay, conditions: 40 mg/l soil; 3 weeks

Compound | root evaluation (1-4)
CC[S+]([O-])c1nnc(C#N)s1 (stereo not shown) [5-ethylsulfinyl-1,3,4-thiadiazole-2-carbonitrile] | 4
CCC[S+]([O-])c1nnc(C#N)s1 (stereo not shown) [5-propylsulfinyl-1,3,4-thiadiazole-2-carbonitrile] | 4

same assay, conditions: 40 mg/l soil; 20 grains per dish; 3 weeks at 20-24° C.

Compound | number of sound peas
CC[S+]([O-])c1nnc(C#N)s1 (stereo not shown) [5-ethylsulfinyl-1,3,4-thiadiazole-2-carbonitrile] | 19
CCC[S+]([O-])c1nnc(C#N)s1 (stereo not shown) [5-propylsulfinyl-1,3,4-thiadiazole-2-carbonitrile] | 16

same assay, conditions: 80 mg/l soil; 3 weeks

Compound | root evaluation (1-4)
CC[S+]([O-])c1nnc(C#N)s1 (stereo not shown) [5-ethylsulfinyl-1,3,4-thiadiazole-2-carbonitrile] | 4
CCC[S+]([O-])c1nnc(C#N)s1 (stereo not shown) [5-propylsulfinyl-1,3,4-thiadiazole-2-carbonitrile] | 4

same assay, conditions: 80 mg/l soil; 20 grains per dish; 3 weeks at 20-24° C.

Compound | number of sound peas
CC[S+]([O-])c1nnc(C#N)s1 (stereo not shown) [5-ethylsulfinyl-1,3,4-thiadiazole-2-carbonitrile] | 19
CCC[S+]([O-])c1nnc(C#N)s1 (stereo not shown) [5-propylsulfinyl-1,3,4-thiadiazole-2-carbonitrile] | 18
